Reference: patent US4250170A, “Antibacterial agents Bu-2349A and B and method of using same” (Bristol-Myers Company, priority 1979, dated 1981)
Converted amounts (≈) assume the structure as drawn. Like-named read-outs stand apart in the source and are kept apart here.

Assays:
[1] = test system: Streptococcus pneumoniae (Dp-4); assay: MIC, two-fold agar dilution; assay type: cell-based; conditions: 18 h, Table 3, GC agar, 10^-2 dilution
[2] = test system: Escherichia coli (Ec-9), AAC(6')-1; assay: MIC, two-fold agar dilution; assay type: cell-based; conditions: 18 h, Table 3, Mueller-Hinton agar, 10^-4 dilution, enzyme AAC(6')-1
S. aureus (Sa-63) = assay: MIC, agar dilution; assay type: cell-based; conditions: Staphylococcus aureus, 18 h
Experimental: (§1) The minimum inhibitory concentrations (MIC) of Bu-2349A and B were determined against a wide variety of bacteria by the two-fold agar dilution method. Mueller-Hinton agar medium was generally used for the determination of bacterial MIC except for species of Streptococcus, Neisseria and Hemophilus for which Gonococcus agar medium (GC agar, Nissui Co., Tokyo) was used. Gifu anaerobe agar medium (GAM agar, Eiken Co., Tokyo) was used for anaerobic bacteria. The MIC's were determined after overnight incubation at 37° C. with an initial inoculum equivalent to a 10^-4 dilution of an 18-hour culture for the aerobic and anaerobic bacteria, except for Streptococcus, Neisseria and Hemophilus for which a 10^-2 dilution was used.
(§2) The influence of inoculum size on MIC was tested on Mueller-Hinton agar using an inoculum of […], 10^-2 or 10^-4 dilution of the overnight culture of test organisms.
(§3) The effect of media pH on the MIC's of Bu-2349A was determined at three pH levels (6, 7 and 8) using Mueller-Hinton agar.
(§4) The media effect on the MIC's of Bu-2349A was tested using four kinds of assay media: Mueller-Hinton agar (MHA), nutrient agar (NA), heart infusion agar (HIA) and brain heart infusion agar (BHIA). The pH was adjusted at 7 and a 10^-4 dilution of overnight culture was used for the inoculum.

P. vulgaris (Pv-3) = assay: MIC, agar dilution; assay type: cell-based; conditions: Proteus vulgaris, 18 h
Experimental: as §1, §2, §3, §4

[3] = test system: Staphylococcus aureus (Sa-77), ANT(4'); assay: MIC, two-fold agar dilution; assay type: cell-based; conditions: 18 h
[4] = test system: Sphaerophorus necrophorus (Sn-1); assay: MIC against anaerobic bacteria; assay type: cell-based; conditions: Fusobacterium necrophorum, 18 h; Table 4; GAM Medium, pH 7
[5] = test system: S. aureus, E. coli, K. pneumoniae, P. vulgaris and P. mirabilis; assay: experimental infections in mice, overall statement; assay type: in vivo; conditions: im
Experimental: The in vivo antibacterial activity of Bu-2349A was determined by experimental infections in mice. Mice were challenged via the intraperitoneal route with a 100 X LD50 dose of the pathogens in a 5% suspension of hog gastric mucin (American Laboratories, Omaha, Neb.). Bu-2349A was administered by the intramuscular route immediately after the bacterial challenge.

Proteus rettgeri (Pr-2) = assay: MIC, two-fold agar dilution; assay type: cell-based; conditions: Providencia rettgeri, 18 h; Table 3; Mueller-Hinton agar, 10^-4 dilution
[6] = test system: Bacteroides fragilis (Bf-3); assay: MIC against anaerobic bacteria; assay type: cell-based; conditions: 18 h, Table 4, GAM Medium, pH 7
[7] = test system: Escherichia coli (Ec-49), APH(3')-2; assay: MIC, two-fold agar dilution; assay type: cell-based; conditions: 18 h, Table 3, Mueller-Hinton agar, 10^-4 dilution, enzyme APH(3')-2
[8] = test system: Peptostreptococcus anaerobium B43 (Pb-1); assay: MIC against anaerobic bacteria; assay type: cell-based; conditions: 18 h, Table 4, GAM Medium, pH 7
Proteus vulgaris (Pv-1) = assay: MIC, two-fold agar dilution; assay type: cell-based; conditions: 18 h, Table 3, Mueller-Hinton agar, 10^-4 dilution
[9] = test system: Staphylococcus epidermidis (Si-2), ANT (4'); assay: MIC, two-fold agar dilution; assay type: cell-based; conditions: 18 h, Table 3, Mueller-Hinton agar, 10^-4 dilution, enzyme ANT (4')
[10] = test system: Hemophylus influenzae (He-2); assay: MIC, two-fold agar dilution; assay type: cell-based; conditions: 18 h; Table 3; GC agar, 10^-2 dilution
[11] = test system: Mycobacterium ranae ATCC 110 (Mr-1); assay: MIC, two-fold agar dilution; assay type: cell-based; conditions: ATCC110, 18 h, Table 3, Mueller-Hinton agar, 10^-4 dilution
acute LD50 in mice = conditions: mouse, in vivo
[12] = test system: Acidoaminococcus fermentans ATCC 25085 (Ae-1); assay: MIC against anaerobic bacteria; assay type: cell-based; conditions: 18 h; Table 4; GAM Medium, pH 7
[13] = test system: Proteus stuartii (Ps-2), AAC(2'); assay: MIC, two-fold agar dilution; assay type: cell-based; conditions: 18 h; Table 3; Mueller-Hinton agar, 10^-4 dilution; enzyme AAC(2')
solubility = assay type: physicochemical; conditions: hydrochloride salt
[14] = pH 6, Table 6, Mueller-Hinton Agar, 10^-4 dilution, pH 6, read-out: MIC
[15] = pH 7, Table 5, Mueller-Hinton Agar, pH 7, inoculum 10^-2 dil., read-out: MIC
[16] = pH 7, Table 5, Mueller-Hinton Agar, pH 7, inoculum 10^-4 dil., read-out: MIC
[17] = pH 7, Table 6, Mueller-Hinton Agar, 10^-4 dilution, pH 7, read-out: MIC
[18] = pH 7, Table 7, pH 7, 10^-4 dilution, BHIA, read-out: MIC
[19] = pH 7, Table 7, pH 7, 10^-4 dilution, HIA, read-out: MIC
[20] = pH 7, Table 7, pH 7, 10^-4 dilution, MHA, read-out: MIC
[21] = pH 7, Table 7, pH 7, 10^-4 dilution, NA, read-out: MIC
[22] = pH 8, Table 6, Mueller-Hinton Agar, 10^-4 dilution, pH 8, read-out: MIC

Compound C=C1OC(OC2C(CO)OC(Oc3ccc(C(=O)NCCCNCCCCNCCCCN)cc3)C2O)C(O)C(OC2OC(CO)C(OC3OC(C)C(N)C(O)C3NC(=O)C(C)N)C(O)C2O)C1O (stereo not shown) [Bu-2349A] has an MIC [1] of over 100 µg/mL, an MIC [2] of 0.8 µg/mL (≈ 0.808 µM) and an MIC (S. aureus (Sa-63); [14]) of over 50 µg/mL. For the same compound, the MIC (S. aureus (Sa-63); pH 7) was 12.5 µg/mL (≈ 12.6 µM), the MIC (S. aureus (Sa-63); [15]) was 6.3 µg/mL (≈ 6.36 µM) and the MIC (S. aureus (Sa-63); [16]) was 6.3 µg/mL (≈ 6.36 µM). It also gave an MIC (S. aureus (Sa-63); [17]) of 6.3 µg/mL (≈ 6.36 µM), an MIC (S. aureus (Sa-63); [18]) of 6.3 µg/mL (≈ 6.36 µM) and an MIC (S. aureus (Sa-63); [19]) of 3.1 µg/mL (≈ 3.13 µM). The MIC (S. aureus (Sa-63); [20]) was 6.3 µg/mL (≈ 6.36 µM), the MIC (S. aureus (Sa-63); [21]) was 6.3 µg/mL (≈ 6.36 µM) and the MIC (S. aureus (Sa-63); [22]) was 3.1 µg/mL (≈ 3.13 µM). It also gave an MIC (P. vulgaris (Pv-3); [14]) of over 50 µg/mL, an MIC (P. vulgaris (Pv-3); pH 7) of 12.5 µg/mL (≈ 12.6 µM) and an MIC (P. vulgaris (Pv-3); [15]) of 6.3 µg/mL (≈ 6.36 µM). It also gave an MIC (P. vulgaris (Pv-3); [16]) of 6.3 µg/mL (≈ 6.36 µM), an MIC (P. vulgaris (Pv-3); [17]) of 6.3 µg/mL (≈ 6.36 µM) and an MIC (P. vulgaris (Pv-3); [18]) of 3.1 µg/mL (≈ 3.13 µM). For the same compound, the MIC (P. vulgaris (Pv-3); [19]) was 1.6 µg/mL (≈ 1.62 µM), the MIC (P. vulgaris (Pv-3); [20]) was 3.1 µg/mL (≈ 3.13 µM) and the MIC (P. vulgaris (Pv-3); [21]) was 1.6 µg/mL (≈ 1.62 µM). For the same compound, the MIC (P. vulgaris (Pv-3); [22]) was 6.3 µg/mL (≈ 6.36 µM), the MIC [3] was 12.5 µg/mL (≈ 12.6 µM) and the MIC [4] was over 100 µg/mL. For the same compound, the “protection against systemic lethal infections” value [5] was “good protection”, the MIC (Proteus rettgeri (Pr-2)) was 0.8 µg/mL (≈ 0.808 µM) and the MIC [6] was over 100 µg/mL. For the same compound, the MIC [7] was 1.6 µg/mL (≈ 1.62 µM), the MIC [8] was over 100 µg/mL and the MIC (Proteus vulgaris (Pv-1)) was 1.6 µg/mL (≈ 1.62 µM). It also gave an MIC [9] of 3.1 µg/mL (≈ 3.13 µM), an MIC [10] of over 100 µg/mL and an MIC [11] of 3.1 µg/mL (≈ 3.13 µM). It also gave an LD50 (acute LD50 in mice; im, intramuscular) of 315 mg/kg, an LD50 (acute LD50 in mice; intravenous) of 35 mg/kg and an MIC [12] of 50 µg/mL (≈ 50.5 µM). For the same compound, the MIC [13] was 1.6 µg/mL (≈ 1.62 µM), the “solubility in methanol, ethanol, dimethylsulfoxide and dimethylformamide” value (solubility; methanol, ethanol, dimethylsulfoxide and dimethylformamide) was “slightly soluble” and the “solubility in other common organic solvents” value (solubility; other common organic solvents) was “practically insoluble”. For the same compound, the solubility in water (solubility; water) was “soluble”.
